Data reported in ChEMBL document CHEMBL1201862, “PubChem BioAssay data set” (2004).
Active and inactive are the calls of the source.

Assays:
[1] = molecular target: T1, Small ubiquitin-related modifier 1 (Homo sapiens, UniProt P63165); assay: SUMO1 protein interaction blockers, potency – biochemical, fluorescence polarization, uHTS hits, dose response (AID 624382); type: functional; settings: read-out: IC50_Mean
[2] = molecular target: Induced myeloid leukemia cell differentiation protein Mcl-1 (Homo sapiens, UniProt Q07820); type: functional
[3] = molecular target: T2, Carboxy-terminal domain RNA polymerase II polypeptide A small phosphatase 1 (Homo sapiens, UniProt Q9GZU7); assay: CTDSP1 inhibitors, concentration-response, biochemical, absorbance readout, ultra-high-throughput screen actives (AID 540297); type: functional
T2 sequence (Q9GZU7 whole entry): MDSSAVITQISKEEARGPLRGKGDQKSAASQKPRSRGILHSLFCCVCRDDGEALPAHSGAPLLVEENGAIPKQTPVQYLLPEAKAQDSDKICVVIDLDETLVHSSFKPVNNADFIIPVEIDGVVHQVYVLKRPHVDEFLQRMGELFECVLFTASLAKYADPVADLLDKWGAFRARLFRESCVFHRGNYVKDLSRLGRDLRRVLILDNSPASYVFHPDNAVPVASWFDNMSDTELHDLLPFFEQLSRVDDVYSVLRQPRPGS

[4] = molecular target: T1, Small ubiquitin-related modifier 1; assay: SUMO1 protein-protein binding blockers, potency – biochemical, FRET, dose response (AID 624383); type: functional; settings: read-out: IC50_Mean
[5] = molecular target: DNA dC->dU-editing enzyme APOBEC-3G (Homo sapiens, UniProt Q9HC16); assay: Dose Response confirmation of small molecule APOBEC3G DNA Deaminase Inhibitors via a fluorescence-based single-stranded DNA deaminase assay. [Related pubchem assays (depositor defined):AID493012, AID493028]; type: functional
[6] = molecular target: DNA (cytosine-5)-methyltransferase 1 (Homo sapiens, UniProt P26358); assay: inhibition of DNA methylation by DNMT1 – biochemical, fluorescent molecular beacon, confirmation (AID 602386); type: functional
[7] = molecular target: DNA dC->dU-editing enzyme APOBEC-3A (Homo sapiens, UniProt P31941); assay: A3A deaminase inhibition for selectivity – biochemical, dose response (AID 504722); type: functional
[8] = molecular target: T3, Apoptotic protease-activating factor 1 (Homo sapiens, UniProt O14727); assay: activation of Apaf-1 mediated apoptosis – fluorescent, uHTS hits, dose response (AID 588554); type: functional
T3 sequence (O14727 whole entry): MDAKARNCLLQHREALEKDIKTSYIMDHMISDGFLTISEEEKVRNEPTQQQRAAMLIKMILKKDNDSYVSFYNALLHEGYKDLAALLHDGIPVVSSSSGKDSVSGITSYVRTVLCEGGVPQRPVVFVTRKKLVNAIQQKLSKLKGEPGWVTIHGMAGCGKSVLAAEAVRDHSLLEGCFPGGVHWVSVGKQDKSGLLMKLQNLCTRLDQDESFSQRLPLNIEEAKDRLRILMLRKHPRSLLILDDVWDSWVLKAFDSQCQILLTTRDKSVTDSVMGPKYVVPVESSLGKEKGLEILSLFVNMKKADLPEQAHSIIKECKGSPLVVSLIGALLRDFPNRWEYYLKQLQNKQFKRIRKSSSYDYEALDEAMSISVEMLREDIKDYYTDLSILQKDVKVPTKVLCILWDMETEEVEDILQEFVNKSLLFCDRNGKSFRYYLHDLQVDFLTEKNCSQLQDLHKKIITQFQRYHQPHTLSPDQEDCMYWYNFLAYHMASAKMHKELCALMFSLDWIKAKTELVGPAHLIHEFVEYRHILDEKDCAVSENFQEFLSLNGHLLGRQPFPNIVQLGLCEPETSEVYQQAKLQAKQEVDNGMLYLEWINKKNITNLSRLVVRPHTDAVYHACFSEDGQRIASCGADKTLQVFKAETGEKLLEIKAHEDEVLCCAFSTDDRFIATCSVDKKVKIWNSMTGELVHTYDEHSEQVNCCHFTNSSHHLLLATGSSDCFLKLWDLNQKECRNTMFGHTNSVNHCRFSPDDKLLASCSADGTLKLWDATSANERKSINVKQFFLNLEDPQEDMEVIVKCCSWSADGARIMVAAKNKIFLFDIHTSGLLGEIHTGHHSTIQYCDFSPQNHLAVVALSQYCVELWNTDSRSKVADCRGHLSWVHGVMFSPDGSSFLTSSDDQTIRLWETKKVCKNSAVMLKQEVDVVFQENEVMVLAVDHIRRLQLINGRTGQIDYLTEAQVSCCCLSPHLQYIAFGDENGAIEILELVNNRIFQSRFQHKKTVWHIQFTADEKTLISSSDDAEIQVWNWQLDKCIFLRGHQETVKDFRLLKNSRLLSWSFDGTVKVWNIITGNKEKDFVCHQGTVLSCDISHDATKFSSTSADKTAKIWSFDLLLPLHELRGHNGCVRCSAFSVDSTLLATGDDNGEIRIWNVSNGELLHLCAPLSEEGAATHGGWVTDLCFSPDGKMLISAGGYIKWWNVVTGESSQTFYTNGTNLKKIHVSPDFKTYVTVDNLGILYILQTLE

[9] = T. cruzi infection blockers in NIH3T3 cells – beta-gal luminescence, NIH3T3 host cells, confirmation (AID 2630); type: functional, cell-based; settings: Mus musculus
[10] = Trypanosoma cruzi growth suppression in host cells – NIH3T3 host cells, beta-gal luminescence, confirmation (AID 2044); type: functional, cell-based;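 further: intracellular parasites grown in NIH/3T3 mouse fibroblasts as host cells; luminescent beta-galactosidase reporter signal from transgenic T. cruzi replicating inside host cells; inhibitors lower the luminescence signal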
[11] = NIH3T3 cell viability loss – ATP luminescence, mouse fibroblasts, counter-screen, dose response (AID 2010); type: functional, cell-based;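 further: cells exposed to compound for about 90 hours before reading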
[12] = Luminescence Cell-Based Secondary HTS screen to identify cytotoxic compounds of NIH3T3 cells. [Related pubchem assays: 1885, 1968 ]; type: functional
[13] = Luminescence Cell-Based/Microorganism Confirmation at Dose of Inhibitors of Trypanosoma cruzi Infection. [Related pubchem assays: 1885, 1968 ]; type: functional
[14] = molecular target: Dual specificity tyrosine-phosphorylation-regulated kinase 1A (Rattus norvegicus, UniProt Q63470); type: biochemical, Homo sapiens
[15] = molecular target: Dual specificity protein kinase CLK1 (Homo sapiens, UniProt P49759); assay: inhibition of human CLK1 activity – biochemical, cherry-picked samples, selectivity assay for Dyrk1A inhibitor project, dose response (AID 588811)
[16] = molecular target: T4, Dual specificity protein phosphatase 6 (Rattus norvegicus, UniProt Q64346)
T4 sequence (Q64346 whole entry): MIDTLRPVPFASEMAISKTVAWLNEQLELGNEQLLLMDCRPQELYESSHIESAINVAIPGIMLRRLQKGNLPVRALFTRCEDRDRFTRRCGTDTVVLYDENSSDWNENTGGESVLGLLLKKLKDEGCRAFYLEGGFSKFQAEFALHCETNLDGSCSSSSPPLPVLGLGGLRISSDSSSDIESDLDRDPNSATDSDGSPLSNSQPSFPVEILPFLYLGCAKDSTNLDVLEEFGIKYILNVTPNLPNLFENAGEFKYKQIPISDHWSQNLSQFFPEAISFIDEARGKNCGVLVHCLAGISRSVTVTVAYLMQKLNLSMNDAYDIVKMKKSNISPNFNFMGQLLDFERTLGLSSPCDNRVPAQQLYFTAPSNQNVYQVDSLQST

[17] = molecular target: T4, Dual specificity protein phosphatase 6; type: functional
[18] = molecular target: Glyceraldehyde-3-phosphate dehydrogenase (Homo sapiens, UniProt P04406)
[19] = molecular target: T5, Tyrosine-protein phosphatase non-receptor type 7 (Homo sapiens, UniProt P35236); type: functional
T5 sequence (P35236 whole entry): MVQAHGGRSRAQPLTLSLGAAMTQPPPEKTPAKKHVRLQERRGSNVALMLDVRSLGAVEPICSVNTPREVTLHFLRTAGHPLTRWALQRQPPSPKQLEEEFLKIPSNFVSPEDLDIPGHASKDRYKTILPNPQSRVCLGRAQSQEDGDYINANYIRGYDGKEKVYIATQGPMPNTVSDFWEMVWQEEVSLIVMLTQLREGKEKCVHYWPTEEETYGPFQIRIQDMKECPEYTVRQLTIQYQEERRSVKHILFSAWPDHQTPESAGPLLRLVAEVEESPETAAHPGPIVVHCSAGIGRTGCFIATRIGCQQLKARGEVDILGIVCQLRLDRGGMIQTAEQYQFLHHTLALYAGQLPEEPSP

[20] = nonselective StAR promoter luciferase inhibitors – cell-based, luminescence, luciferase reporter, counter-screen for LRH-1 inverse agonist project, dose response (AID 651969); type: functional
[21] = molecular target: T6, Heat shock factor protein 1 (Mus musculus, UniProt P38532); assay: enhancement of HSF1-driven luciferase signal – cell-based, NIH3T3, luminescence, dose retest, confirmation (AID 435004); type: functional;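 further: stress induced by proteasome inhibitor MG132 added 30 min after compound; luciferase reporter driven by HSF1 response element in NIH3T3 cells; actives raise luminescence as potentiators of the MG132 stress response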
T6 sequence (P38532 whole entry): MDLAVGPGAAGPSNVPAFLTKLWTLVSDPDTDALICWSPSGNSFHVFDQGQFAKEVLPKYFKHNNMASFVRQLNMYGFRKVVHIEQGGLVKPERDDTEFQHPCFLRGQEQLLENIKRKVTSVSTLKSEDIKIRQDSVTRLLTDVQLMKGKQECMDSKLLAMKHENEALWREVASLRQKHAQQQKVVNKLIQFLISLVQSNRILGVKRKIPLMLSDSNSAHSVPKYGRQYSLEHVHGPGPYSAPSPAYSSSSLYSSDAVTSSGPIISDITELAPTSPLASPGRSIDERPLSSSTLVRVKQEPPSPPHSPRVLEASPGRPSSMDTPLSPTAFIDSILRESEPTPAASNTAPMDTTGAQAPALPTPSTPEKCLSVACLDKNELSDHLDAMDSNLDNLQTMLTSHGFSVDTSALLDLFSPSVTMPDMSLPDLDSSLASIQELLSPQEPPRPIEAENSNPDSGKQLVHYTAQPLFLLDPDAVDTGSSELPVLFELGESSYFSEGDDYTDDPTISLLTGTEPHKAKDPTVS

Vero [22] = assay: cells; type: functional, cell-based; settings: Chlorocebus sabaeus
[23] = molecular target: Nuclear receptor subfamily 5 group A member 2 (Homo sapiens, UniProt O00482); type: functional, cell-based;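 further: HEK293T cells transfected with LRH-1 and a StAR promoter luciferase reporter; potency for inhibitors that lower LRH-1 driven reporter light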
Vero [24] = assay: cells; type: functional; settings: Chlorocebus sabaeus
Steroidogenic factor 1 = Steroidogenic factor 1 (Homo sapiens, UniProt Q13285); assay: Counterscreen for inverse agonists of the liver receptor homolog-1 (LRH-1; NR5A2): Luminescence-based cell-based high throughput dose response assay to identify inverse agonists of the Steroidogenic Factor 1 Nuclear Receptor (SF1; NR5A1).; type: functional
[25] = Luminescence Cell-Based Dose Response Follow up to Identify Inhibitors of Platelet Dense Granule Release. [Related pubchem assays (depositor defined):AID1663, AID1678, AID1889, AID2519]; type: functional
[26] = blockers of SFLLRN-triggered platelet ATP secretion – cell-based, human platelets, luminescence, dry powder, dose response (AID 493100); type: functional
Candida albicans [27] = assay: fluconazole-resistant Candida strain growth inhibitors – CaCi-8 strain, dry powder, set 4, dose response (AID 488950); type: functional, organism-based
Candida albicans [28] = assay: C. albicans growth inhibition with fluconazole – CaCi-2 strain, Alamar Blue, dry powder, set 4, dose response (AID 488943); type: functional, organism-based
Candida albicans [29] = assay: antifungal activity against resistant Candida strain – CaCi-8, fluconazole, Alamar Blue, dry powder, dose response (AID 488807); type: functional, organism-based
Candida albicans [30] = assay: Candida growth inhibition combined with fluconazole – CaCi-2 strain, Alamar Blue, dry powder, set 3, dose response (AID 488907); type: functional, organism-based
Candida albicans [31] = assay: single-agent toxicity toward C. albicans – CaCi-2 strain, no fluconazole, dry powder, set 4, counter-screen for reversing antifungal drug resistance, dose response (AID 488932); type: functional, organism-based
[32] = molecular target: Dual specificity protein phosphatase 3 (Homo sapiens, UniProt P51452); assay: SAR VHR1 Fluorescent Assay for In Vitro dose response studies Set 3. [Related pubchem assays (depositor defined):AID1654, AID1661, AID1878]; type: functional
Sequence of Dual specificity protein phosphatase 3 (P51452 whole entry): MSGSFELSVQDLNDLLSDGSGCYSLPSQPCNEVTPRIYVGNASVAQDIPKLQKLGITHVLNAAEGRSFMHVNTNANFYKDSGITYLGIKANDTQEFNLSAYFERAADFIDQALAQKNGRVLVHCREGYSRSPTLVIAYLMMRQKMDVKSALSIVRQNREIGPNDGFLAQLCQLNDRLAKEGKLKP

T1 sequence (P63165 whole entry): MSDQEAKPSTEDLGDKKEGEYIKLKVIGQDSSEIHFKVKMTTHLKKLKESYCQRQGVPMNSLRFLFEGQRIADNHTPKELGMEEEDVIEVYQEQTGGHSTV
Sequence of DNA dC->dU-editing enzyme APOBEC-3G (Q9HC16 whole entry): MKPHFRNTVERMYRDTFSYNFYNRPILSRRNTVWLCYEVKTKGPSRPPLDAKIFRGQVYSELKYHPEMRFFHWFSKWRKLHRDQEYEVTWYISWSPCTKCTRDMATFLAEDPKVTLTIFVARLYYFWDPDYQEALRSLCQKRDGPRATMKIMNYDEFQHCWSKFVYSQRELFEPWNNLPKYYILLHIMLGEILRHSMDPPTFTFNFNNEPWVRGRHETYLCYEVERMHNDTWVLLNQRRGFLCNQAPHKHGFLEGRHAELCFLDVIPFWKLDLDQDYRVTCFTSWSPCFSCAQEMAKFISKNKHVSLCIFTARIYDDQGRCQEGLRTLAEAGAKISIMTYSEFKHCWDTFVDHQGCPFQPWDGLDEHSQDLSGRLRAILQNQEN
Sequence of DNA (cytosine-5)-methyltransferase 1 (P26358 whole entry): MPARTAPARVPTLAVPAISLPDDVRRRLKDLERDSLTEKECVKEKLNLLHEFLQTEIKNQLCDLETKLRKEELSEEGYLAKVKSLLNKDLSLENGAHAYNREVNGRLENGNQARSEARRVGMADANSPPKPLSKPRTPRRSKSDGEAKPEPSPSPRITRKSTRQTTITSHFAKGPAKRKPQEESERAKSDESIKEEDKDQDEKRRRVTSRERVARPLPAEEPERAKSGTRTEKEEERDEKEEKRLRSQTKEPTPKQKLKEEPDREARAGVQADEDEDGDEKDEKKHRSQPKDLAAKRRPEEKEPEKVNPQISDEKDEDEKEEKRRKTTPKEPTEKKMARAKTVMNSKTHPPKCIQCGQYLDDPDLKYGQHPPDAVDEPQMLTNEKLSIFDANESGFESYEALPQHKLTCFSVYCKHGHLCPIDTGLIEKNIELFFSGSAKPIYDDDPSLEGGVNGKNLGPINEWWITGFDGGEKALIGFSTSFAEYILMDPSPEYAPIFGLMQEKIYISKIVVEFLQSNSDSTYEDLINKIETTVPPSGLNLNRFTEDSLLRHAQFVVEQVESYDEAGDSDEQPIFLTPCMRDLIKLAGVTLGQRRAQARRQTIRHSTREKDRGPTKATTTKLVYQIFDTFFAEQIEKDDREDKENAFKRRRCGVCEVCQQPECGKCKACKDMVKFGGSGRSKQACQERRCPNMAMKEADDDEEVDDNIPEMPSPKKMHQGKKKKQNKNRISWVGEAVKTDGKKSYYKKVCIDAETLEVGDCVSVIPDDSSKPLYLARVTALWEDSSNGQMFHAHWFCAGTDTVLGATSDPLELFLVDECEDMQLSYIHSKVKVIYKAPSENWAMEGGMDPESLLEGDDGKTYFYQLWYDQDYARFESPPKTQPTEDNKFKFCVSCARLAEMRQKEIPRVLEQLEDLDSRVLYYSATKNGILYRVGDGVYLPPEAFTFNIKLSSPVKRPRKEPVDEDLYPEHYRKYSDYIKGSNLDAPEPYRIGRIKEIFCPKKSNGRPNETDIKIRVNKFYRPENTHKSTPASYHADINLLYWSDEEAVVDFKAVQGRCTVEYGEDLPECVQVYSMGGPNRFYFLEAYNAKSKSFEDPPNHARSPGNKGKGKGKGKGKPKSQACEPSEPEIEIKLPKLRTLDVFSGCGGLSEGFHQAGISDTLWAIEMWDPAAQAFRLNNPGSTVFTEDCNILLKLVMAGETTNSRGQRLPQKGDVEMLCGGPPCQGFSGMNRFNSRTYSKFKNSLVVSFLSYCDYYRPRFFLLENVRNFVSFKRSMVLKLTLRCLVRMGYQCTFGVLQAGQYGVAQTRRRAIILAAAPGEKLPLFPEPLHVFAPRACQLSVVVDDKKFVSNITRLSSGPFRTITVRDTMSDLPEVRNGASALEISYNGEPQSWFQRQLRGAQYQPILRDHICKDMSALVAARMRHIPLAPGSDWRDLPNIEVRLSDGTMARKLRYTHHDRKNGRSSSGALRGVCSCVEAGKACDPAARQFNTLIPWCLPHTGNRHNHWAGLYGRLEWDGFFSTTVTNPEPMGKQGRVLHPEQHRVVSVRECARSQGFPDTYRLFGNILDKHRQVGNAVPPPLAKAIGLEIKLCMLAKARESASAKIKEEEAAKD
Sequence of Nuclear receptor subfamily 5 group A member 2 (O00482 whole entry): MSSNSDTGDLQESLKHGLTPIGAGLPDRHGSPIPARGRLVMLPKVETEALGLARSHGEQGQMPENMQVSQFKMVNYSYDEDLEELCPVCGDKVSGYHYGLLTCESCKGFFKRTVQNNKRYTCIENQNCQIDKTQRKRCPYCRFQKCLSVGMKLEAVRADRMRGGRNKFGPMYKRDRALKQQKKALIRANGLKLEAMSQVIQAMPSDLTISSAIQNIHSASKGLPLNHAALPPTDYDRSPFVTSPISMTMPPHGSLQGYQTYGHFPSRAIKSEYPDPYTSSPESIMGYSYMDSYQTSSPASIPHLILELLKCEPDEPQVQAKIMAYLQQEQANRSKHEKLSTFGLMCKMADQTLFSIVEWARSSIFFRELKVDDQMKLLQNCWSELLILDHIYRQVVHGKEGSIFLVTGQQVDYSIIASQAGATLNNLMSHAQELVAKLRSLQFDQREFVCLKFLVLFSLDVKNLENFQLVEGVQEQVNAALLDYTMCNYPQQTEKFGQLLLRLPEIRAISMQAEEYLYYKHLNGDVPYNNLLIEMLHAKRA
Sequence of Steroidogenic factor 1 (Q13285 whole entry): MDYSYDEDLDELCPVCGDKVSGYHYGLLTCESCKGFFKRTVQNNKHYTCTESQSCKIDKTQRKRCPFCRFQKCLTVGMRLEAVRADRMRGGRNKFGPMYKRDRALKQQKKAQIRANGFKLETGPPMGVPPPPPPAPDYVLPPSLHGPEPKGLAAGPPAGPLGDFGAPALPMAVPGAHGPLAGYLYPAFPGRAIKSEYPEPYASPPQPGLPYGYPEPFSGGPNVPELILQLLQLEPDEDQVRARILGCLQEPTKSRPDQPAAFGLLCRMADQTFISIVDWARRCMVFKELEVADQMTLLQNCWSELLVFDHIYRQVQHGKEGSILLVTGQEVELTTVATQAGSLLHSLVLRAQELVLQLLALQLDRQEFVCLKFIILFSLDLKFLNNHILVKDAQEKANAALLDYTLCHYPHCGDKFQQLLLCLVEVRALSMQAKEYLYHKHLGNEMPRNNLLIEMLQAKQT
Sequence of Induced myeloid leukemia cell differentiation protein Mcl-1 (Q07820 whole entry, the tested form may be a part): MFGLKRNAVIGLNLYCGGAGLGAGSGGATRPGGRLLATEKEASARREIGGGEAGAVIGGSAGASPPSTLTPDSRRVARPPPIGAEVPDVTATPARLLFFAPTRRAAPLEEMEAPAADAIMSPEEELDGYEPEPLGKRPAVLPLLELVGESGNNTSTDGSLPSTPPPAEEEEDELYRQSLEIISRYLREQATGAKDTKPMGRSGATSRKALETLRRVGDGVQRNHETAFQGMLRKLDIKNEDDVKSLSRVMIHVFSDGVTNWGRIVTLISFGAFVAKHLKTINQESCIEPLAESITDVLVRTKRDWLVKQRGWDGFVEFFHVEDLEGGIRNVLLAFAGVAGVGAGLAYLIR
Sequence of Glyceraldehyde-3-phosphate dehydrogenase (P04406 whole entry): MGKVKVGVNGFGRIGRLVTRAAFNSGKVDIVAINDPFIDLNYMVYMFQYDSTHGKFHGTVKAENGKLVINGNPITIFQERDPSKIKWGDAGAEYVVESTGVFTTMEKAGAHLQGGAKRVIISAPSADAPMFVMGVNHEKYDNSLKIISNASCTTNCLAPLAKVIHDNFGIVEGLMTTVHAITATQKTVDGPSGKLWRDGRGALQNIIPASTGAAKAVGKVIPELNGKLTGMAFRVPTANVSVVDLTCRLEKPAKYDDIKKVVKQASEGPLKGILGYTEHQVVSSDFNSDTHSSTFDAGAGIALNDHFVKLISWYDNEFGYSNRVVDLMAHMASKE
Sequence of Dual specificity protein kinase CLK1 (P49759 whole entry): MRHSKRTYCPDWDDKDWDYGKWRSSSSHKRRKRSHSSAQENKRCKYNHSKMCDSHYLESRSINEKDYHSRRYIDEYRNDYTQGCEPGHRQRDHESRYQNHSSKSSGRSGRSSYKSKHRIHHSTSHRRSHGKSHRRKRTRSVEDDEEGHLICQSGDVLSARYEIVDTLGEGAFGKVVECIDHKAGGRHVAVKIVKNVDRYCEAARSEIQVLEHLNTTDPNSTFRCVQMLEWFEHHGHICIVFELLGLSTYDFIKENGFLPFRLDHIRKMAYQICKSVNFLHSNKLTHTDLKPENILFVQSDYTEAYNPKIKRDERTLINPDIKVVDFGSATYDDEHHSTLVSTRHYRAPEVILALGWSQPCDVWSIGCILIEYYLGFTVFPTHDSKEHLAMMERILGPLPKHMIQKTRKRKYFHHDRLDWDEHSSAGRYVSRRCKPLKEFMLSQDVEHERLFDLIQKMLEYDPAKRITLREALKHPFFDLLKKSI
Sequence of DNA dC->dU-editing enzyme APOBEC-3A (P31941 whole entry): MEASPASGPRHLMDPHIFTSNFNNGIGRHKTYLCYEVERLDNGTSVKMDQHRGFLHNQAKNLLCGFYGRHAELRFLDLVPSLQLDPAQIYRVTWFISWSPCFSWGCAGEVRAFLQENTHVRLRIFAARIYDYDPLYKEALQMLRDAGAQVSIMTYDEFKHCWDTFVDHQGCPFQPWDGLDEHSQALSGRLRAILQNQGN

C=C(C)C(=O)Nc1cccc(C2=NOC3(C2)C[C@@H](C(N)=O)N(C(=O)C(=C)C)C3)c1 (stereo partly specified)
IC50 [1]: > 66.6 µM (inactive)
IC50 [2]: 3.08 µM (not active)
IC50 [3]: 1.89 µM (active)
IC50 [4]: 2.56 µM (active)
IC50 [5]: 5.94 µM (active)
IC50 [6]: 4.95 µM (active)
IC50 [7]: > 100 µM (inactive)
EC50 [8]: 1.24 µM (active)

CC(C)=CCCC(C)CN(C)CCc1ccccn1 (stereo unspecified)
EC50 [9]: 0.027 µM (active)
EC50 [10]: < 0.1 µM (active)
EC50 [11]: > 60 µM (not active)
EC50 [12]: > 195 µM (not active)
EC50 [13]: 0.027 µM (active)
EC50 (cells): 0.083 µM (active)

CC(=O)Nc1ccc(Nc2cc(C)nc3c(-c4ccccc4)cnn23)cc1
AC50 [14]: 5.54 µM (active)
AC50 [15]: 15.3 µM (active)

CCCCCCCCCCCCCCCCCCC#CCCCCCCCCCCC(=O)O
IC50 [16]: > 100 µM (inactive)
IC50 [17]: > 100 µM (inactive)
IC50 [18]: > 100 µM (not active)
IC50 [19]: 15.2 µM (active)

O=C(Nc1ccc(Br)cn1)c1ccc([N+](=O)[O-])o1
IC50 [20]: 35.9 µM (inactive)
EC50 [21]: 16.7 µM (active)
IC50 (Vero [22]): > 25 µM (active)
IC50 [23]: 35.9 µM (inactive)
CC50 (Vero [24]): 13.8 µM (active)
IC50 (Steroidogenic factor 1): 35.9 µM (inactive)

C/C(=N/NC(=O)C1CCCC1)c1ccc(NC(=O)C(F)(F)F)cc1
EC50 [25]: 0.802 µM (active)
AC50 [26]: 12.3 µM (active)

O=C(c1ccccc1)N1CCN(c2ccnc3cc(Cl)ccc23)CC1
AC50 (Candida albicans [27]): 2.05 µM (active)
AC50 (Candida albicans [28]): 1.69 µM (active)
AC50 (Candida albicans [29]): 5.68 µM (active)

Cn1ccnc1N1CCN(C(=O)c2ccc(Cl)cc2)CC1
AC50 (Candida albicans [27]): 224 µM (active)
AC50 (Candida albicans [30]): 0.587 µM (active)
AC50 (Candida albicans [28]): 8.2 µM (active)
AC50 (Candida albicans [31]): > 260 µM (inactive)

COc1ccc(C(=O)Nc2nc3c(OC)cccc3s2)cc1
IC50 [32]: 41.9 µM (active)
